Residues, ends and D or L forms follow the SMILES beside them. *: point of attachment. For = O=C*
Row | melting point | Compound
1 | 190 to 192 °C | CCCCCCCNC(=O)Nc1ccc(N)cc1C(=O)NC1CCN(C(c2ccccc2)c2ccccc2)CC1
2 | 180 to 182 °C | O=CNC(CC(=O)O)C(=O)NC(Cc1ccccc1)C(=O)O (stereo not drawn) (For-Asp-Phe-OH; configuration not given here)
3 | 116 °C | CN(C(=O)COc1nc2cccc(F)c2s1)c1ccccc1
4 | 237 to 238 °C | Cn1c2cc(C=O)ccc2c2nc3ccccc3nc21
5 | 149 to 151 °C | COc1ccc(C(=O)c2ccc(-n3ccnc3)cc2)cc1OC
6 | 109 to 110 °C | Cc1cnc(Cl)c(OCC(O)CNC(C)C)n1 (centres undefined)
7 | 198 to 201 °C | CCOC(=O)CCNC(=O)NC1CCN(c2ccc(C=NNOC(=O)OCC)cc2)C1=O (centres undefined)
8 | 146 to 147 °C | CCNC(=O)c1cc(NS(=O)(=O)c2ccc(OC)cc2)ccc1Oc1cncc(Cl)c1
9 | 197 to 199 °C | COC(=O)c1ccc(COc2cc3c(=O)n(-c4ccc(NC(=O)OC(C)(C)C)cc4)c(C(=O)OC)c(-c4cc(OC)c(OC)c(OC)c4)c3cc2OC)cc1
10 | 95.5 to 96.2 °C | Cc1[nH]c2ccc(C(=O)NS(=O)(=O)CCCCl)cc2c1Cc1ccc(Cl)cc1Cl
11 | 133 to 135 °C | CCSC1=NCC(=O)N1c1ccc(C)c(Cl)c1
12 | 73 to 76 °C | COC(CSc1nc(SCc2ccccc2)n[nH]1)OC
13 | 184 to 185 °C | C[C@H]([C@](O)(Cn1cncn1)c1ccc(F)cc1F)S(=O)(=O)CC(N)=O
14 | 153 to 158 °C | ON=C(CCC1CCN(Cc2ccccc2)CC1)c1ccc(N2CCCC2)cc1
15 | 122 °C | COCc1ccc(Cl)c(C2(C)C(=O)N(Cc3ccc(OC)cc3OC)c3ccc(Cl)cc32)c1 (centres undefined)
16 | 123 to 125 °C | CCC(CC)N(Cc1ccc(C#N)cc1)S(=O)(=O)c1ccc(Cl)cc1
17 | 190 to 191 °C | Cc1ccccc1C1CC(=O)c2c(C)c[nH]c2C1 (centres undefined)
18 | 120 °C | O=C1CC(SCc2ccccc2)C(O)(c2ccccc2)C(SCc2ccccc2)C1 (centres undefined)
19 | 167 to 168 °C | COC(=O)c1[nH]c2c(C)ccc(Cl)c2c1C(C)=O
20 | 182 °C | NS(=O)(=O)c1cccc(-c2cc(-c3nc(-c4ccc(Cl)cc4)cc(C(F)(F)F)n3)ccn2)c1
21 | 110 to 112 °C | CS(=O)(=O)NC(=O)CCCCOc1cccc2occc12
22 | 206 to 208 °C | O=C(O)c1cc(=O)c(-c2ccc(OCc3ccccc3)c(OCc3ccccc3)c2)co1

Row | melting point | Compound
23 | 205 to 210 °C | COc1ccc2c(c1)C(=O)N(c1cc3ccn(C)c3cn1)C2
24 | 98 °C | CC(OC(=O)C1CC(=O)c2cc(F)ccc2O1)c1ccccc1 (single isomer, unassigned; (+))
25 | 169 °C | COC(=O)CCn1c(C(=O)O)c(C)c2cc(C)ccc21
26 | 160 to 161 °C | COc1ccc(NC(=O)c2cc(OC)c(OC)c(OC)c2)cc1
27 | 136 to 140 °C | Cc1ccc(C2(Cl)c3ccccc3C(=O)c3ccccc32)cc1
28 | 147 to 150 °C | CCc1nc(Cl)cc(NN)n1
29 | 178 to 180 °C | CC(C)(C)c1cc(C(=O)c2ccc([N+](=O)[O-])cc2)cc(C(C)(C)C)c1O
30 | 98 to 101 °C | CCCSc1ncc(CO)n1Cc1ccccc1Cl
31 | 102 to 103 °C | CNC(=O)S(=O)(=O)Nc1sc(CC(C)C)cc1-c1ccc(Cn2c(-c3ccccc3)nc(OC)c2C=O)cc1
32 | 132 to 133 °C | CCc1ccccc1/C(N)=C1\Sc2ccccc2C1=O
33 | 188 °C | COc1ccc2c(c1)S(=O)(=O)N(C(C)C)C2=O
34 | 147 to 148 °C | CCOP(=O)(/C=C/c1cn(-c2ccccc2)nc1OCc1ccc(OCc2nc(-c3cccc(C#N)c3)oc2C)c(OC)c1)OCC
35 | 232 to 233 °C | Cc1nc(-n2ccc(OCc3ccccc3)cc2=O)n(C)c1C(=O)NCc1ccccc1
36 | 133 to 135 °C | Cc1ccccc1C(=O)c1ccc(CC(=O)O)n1C
37 | 96 to 98 °C | CN1CC=C(C2c3ccccc3CCc3ccccc32)CC1
38 | 143 to 144 °C | Cc1c(C)c2c(c(C)c1N)C(c1ccc(Br)cc1)C(C)(C)O2 (single isomer, unassigned; (+))
39 | 47 to 48 °C | CCCCCCCNCCCCCO
40 | > 250 °C | O=c1[nH]c2cc(Cl)ccc2c(=O)n1S(=O)(=O)c1ccc([N+](=O)[O-])cc1
41 | 258 to 260 °C | COc1ccc(-c2c(NCCc3ccc(C(C)(C)C)cc3)c(=O)c2=O)cc1
42 | 98 to 100 °C | CCOC(=O)C1=C(C(OCC)OCC)NC(C)=C(C(=O)OCCO)C1c1cccc([N+](=O)[O-])c1 (centres undefined)
43 | 120 to 121 °C | CCOC(Cc1ccc2oc(CN3c4ccccc4Sc4ccccc43)cc2c1)C(=O)O (centres undefined)
44 | 215 to 216 °C | O=C(OCc1nc(/C=C/c2cn(-c3ccccc3)nc2O)cs1)c1ccccc1

Row | melting point | Compound
45 | 215 °C | O=C(O)c1c(Br)nc(-c2ccccc2)n1Cc1cc2c(cc1Cl)OCO2
46 | 201 °C | CCOC(=O)C1=C(C)Nc2nc(N3CCOCC3)nc(N3CCOCC3)c2C1c1ccccc1[N+](=O)[O-] (centres undefined)
47 | 209 to 211 °C | CCN1C(=O)C(C)(C)c2ccc(C(=O)Nc3ccncc3)cc21
48 | 182 to 183 °C | CC(C)(C)OC(=O)NCCCCn1c(-c2ccccc2)nc2c(N)nc3ccccc3c21
49 | 164 to 166 °C | CCOC(=O)C(=O)Nc1cc(Cl)cc(NC(=O)C(=O)OCC)n1
50 | 200 to 205 °C | O=C(O)CCNc1cc(C(c2cc(F)ccc2F)S(=O)(=O)c2ccc(Cl)cc2)c(Cl)cn1 (centres undefined)
51 | 60 to 63 °C | CCCCCCC/C=C/C(=O)NC
52 | 229 to 230 °C | O=C(c1ccc(-c2ccncn2)cc1)N1CCN(S(=O)(=O)c2cc3cc(Cl)ccc3[nH]2)CC1
53 | 82 to 92 °C | CN(C)Cc1cc2cc(C(=O)NN)ccc2o1
54 | 79 to 80 °C | CCCc1oc(-c2ccccc2)nc1COc1ccc(CO)cc1
55 | 75 to 76 °C | CC(C)(C)OC(=O)NCC(=O)c1ccc(OCc2ccccc2)cc1
56 | 74 °C | c1ccc(COc2cccc(OCc3ccccc3)n2)cc1
57 | 155 to 160 °C | COc1ccc2c(c1C=O)Nc1ccccc1S2
58 | 175 to 176 °C | COc1cc(COc2nn(Cc3ccccc3)cc2/C=C/C(=O)O)ccc1OCc1nc(-c2ccco2)oc1C
59 | 105 to 110 °C | Cc1ccc(S(=O)(=O)C2SC(=O)N(C(c3ccccc3)(c3ccccc3)c3ccccc3)C2=O)cc1 (centres undefined)
60 | 203 to 205 °C | COC(=O)c1ccc(COc2ccc3cc(-c4ccc(-c5ccccc5)[nH]4)ccc3c2)c(C(=O)OC)c1
61 | 72 to 74 °C | COc1ccc2c(c1)Oc1ccccc1C2
62 | 152 to 155 °C | CC1c2ccccc2CC(=O)Cc2ccccc21
63 | 158 to 159 °C | O=C(NCCn1ccccc1=O)c1cccnc1
64 | 65 °C | CC(C)Nc1nc(Cl)nc(Cl)c1[N+](=O)[O-]
65 | 168 to 169 °C | O=C(CCCCCCC1=CC(O)CC1=O)Oc1ccc(NC(=O)c2ccccc2)cc1 (centres undefined)

Row | Compound | melting point
66 | Cc1cc(C2=NOC(c3cc(Cl)cc(Cl)c3)(C(F)(F)F)C2)ccc1Br (centres undefined) | 105 to 108 °C
67 | CC(Cc1ccc(C(=O)OCOC(=O)C(C)(C)C)cc1)NCC(O)c1ccc(O)c(CO)c1 (centres undefined) | 55 to 57 °C
68 | CCOC(=O)c1c2n(c3cc(N4CCNCC4)c(F)cc3c1=O)C(C)S2 (centres undefined) | 224 °C
69 | CC1(O)C(O)C(CO)OC1n1ccc2c(N)ncnc21 (centres undefined) | 222 °C

Source: a melting point compilation (Tetko et al.; mined from patent text by program, amines drawn as free bases though some values may be those of a salt)
